The source made the active and inactive calls. No cut-off for these calls is given here.

This passage reports Activity results from ChEMBL document CHEMBL1146585, “Copacamphane, picrotoxane, and alloaromadendrane sesquiterpene glycosides and phenolic glycosides from Dendrobium moniliforme” (J Nat Prod, 2003).

The subject of series [1] is T-cell. Briefly: Immunoregulatory activity assessed as inhibition of T cell proliferation at 0.1 uM. Format: functional, cell-based.
The test system of series [2] is B-cell. The series is described as follows: Immunoregulatory activity assessed as stimulation of B cell proliferation at 10 uM. Format: functional, cell-based.
The nature of series [3]: Cytotoxicity against T cell. Format: cell-based.

As to `COc1cc(CO)ccc1O[C@@H]1O[C@H](CO)[C@@H](O)[C@H](O)[C@H]1O` [VANILLOLOSIDE], the outcome in series [1] and in series [2] was Active. Moreover, in series [3], the Activity entry is listed as “Non-toxic”.

In the case of `CC(C)(O)[C@H]1C[C@H](O[C@@H]2O[C@H](CO)[C@@H](O)[C@H](O)[C@H]2O)[C@@]2(C)[C@@H]3CC[C@]2(C)C(=O)[C@@H]31` [DENDROMONILISIDE A], the outcome in series [1] and in series [2] was Active. Further, the Activity result in series [3] is reported as “Non-toxic”.

For `CC(C)[C@H]1[C@@H]2OC(=O)[C@H]1[C@H]1C[C@H](O[C@@H]3O[C@H](CO)[C@@H](O)[C@H](O)[C@H]3O)[C@]3(CO3)[C@@]1(C)[C@H]2O` [DENDROMONILISIDE C], the result in series [1] and in series [2] was Active. Further, the Activity entry in series [3] is “Non-toxic”.
